The target in the first test is Progesterone receptor (Oryctolagus cuniculus) (UniProt P06186). The experiment in a line: Binding affinity towards rabbit progesterone receptor; not active.
Regarding `COc1ccc(C(=O)N2CCCC(c3ccc(OC)cc3)=N2)cc1`, the IC50 entry is reported as “Not Active”.
Turning to `O=C(c1cccc(Cl)c1)N1CCCC(c2ccc(Cl)cc2)=N1`, the IC50 result is “Not Active”.
The same measure, in the same setting: under `CC(C)(C)c1ccc(C(=O)N2CCCC(c3ccccc3)=N2)cc1` stands “Not Active”; under `COc1ccc(C2=NN(C(=O)c3ccccc3)CCC2)cc1`, “Not Active”; under `COc1ccc(C2=NN(C(=O)c3ccc(C)cc3)CCC2)cc1`, “Not Active”.
Take `O=C(c1ccc(Cl)cc1)N1CCCC(c2ccccc2)=N1`: the IC50 result is “Not Active”.
For the molecule `O=C(c1ccccc1)N1CCCC(c2ccc(Cl)cc2)=N1`, the IC50 result is listed as “Not Active”.
Same read-out and setting: with `Cc1ccc(C(=O)N2CCCC(c3ccc(Cl)cc3)=N2)cc1` the entry was “Not Active”; with `COc1ccc(C(=O)N2CCCC(c3ccc(Cl)cc3)=N2)cc1`, “Not Active”.
Same read-out and setting: under `COc1ccc(C2=NN(C(=O)c3ccc(C(C)(C)C)cc3)CCC2)cc1` stands “Not Active”; under `O=C(c1ccc(Br)cc1)N1CCCC(c2ccccc2)=N1`, “Not Active”.
On to `COc1ccc(C2=NN(C(=O)c3ccc(Cl)cc3)CCC2)cc1`, for which the IC50 entry is listed as “Not Active”.
Consider `COc1ccc(C2=NN(C(=O)c3ccc(Cl)c(Cl)c3)CCC2)cc1`, for which the half-maximal inhibitory concentration (IC50) entry is given as “Not Active”.
Take `COc1ccc(C(=O)N2CCCC(c3ccccc3)=N2)cc1`: the IC50 result was “Not Active”.
On the same count and under the same terms, with `Cc1ccc(C(=O)N2CCCC(c3ccccc3)=N2)cc1` the entry was “Not Active”.
Turning to `O=C(c1cccc(Cl)c1)N1CCCC(c2ccccc2)=N1`, the IC50 result was “Not Active”.
Still for that read-out and setting: with `CC(C)(C)c1ccc(C(=O)N2CCCC(c3ccc(Cl)cc3)=N2)cc1` the entry was “Not Active”; with `COc1ccc(C2=NN(C(=O)c3ccc(Br)cc3)CCC2)cc1`, “Not Active”; with `O=C(c1ccccc1)N1CCCC(c2ccccc2)=N1`, “Not Active”.
Still for that read-out and setting: under `COc1ccc(C2=NN(C(=O)c3cccc(Cl)c3)CCC2)cc1` stands “Not Active”.

The target is the same in another test. In words: Binding affinity towards rabbit progesterone receptor.
As to `O=C(c1ccc([N+](=O)[O-])cc1)N1CCCC(c2ccc(F)cc2)=N1`, the IC50 amounted to 1020 nM.
With `O=C(c1ccc(Cl)c(Cl)c1)N1CCCC(c2ccccc2)=N1`, the IC50 turned out to be 4000 nM.
The same measure, in the same setting: under `O=C(c1ccc(Cl)cc1)N1CCCC(c2ccc(Cl)cc2)=N1` stands 4000 nM; under `O=C(c1ccc(Cl)c(Cl)c1)N1CCCC(c2ccc(F)cc2)=N1`, 250 nM; under `O=C(c1ccc([N+](=O)[O-])cc1)N1CCCC(c2ccc(Cl)cc2)=N1`, 270 nM.
Molecule `O=C(c1ccc([N+](=O)[O-])cc1)N1CCCC(c2ccc(Cl)c(Cl)c2)=N1` displayed an IC50 of 100 nM.
In turn, `O=C(c1cc(Cl)cc(Cl)c1)N1CCCC(c2ccc(Br)cc2)=N1` displayed an IC50 of 470 nM.
Still for that read-out and setting: with `O=C(c1ccc(Cl)c(Cl)c1)N1CCCC(c2ccc(Cl)c(Cl)c2)=N1` the figure was 100 nM.

(Values after ChEMBL document CHEMBL1128207 (J Med Chem, 1995).)
